Where two headings read alike, the source gives them in different places.

The assay deals with CB1 (mutant) (Homo sapiens, UniProt P21554). As to the kind of experiment: R-SAT functional receptor assay, CB1 (mutant, truncated after amino acid 417). It is filed as cell-based. The settings on record: R-SAT CB1; for Emax: receptor form not stated, relative to SR141716 (100%), read-out: % Inhibition; for IC50: receptor form (mutant or wild-type) not stated.
Where [1] appears, read: Appendix A, read-out: pIC50 (converted).

Chain of CB1 (mutant) (P21554 1-417, change not shown): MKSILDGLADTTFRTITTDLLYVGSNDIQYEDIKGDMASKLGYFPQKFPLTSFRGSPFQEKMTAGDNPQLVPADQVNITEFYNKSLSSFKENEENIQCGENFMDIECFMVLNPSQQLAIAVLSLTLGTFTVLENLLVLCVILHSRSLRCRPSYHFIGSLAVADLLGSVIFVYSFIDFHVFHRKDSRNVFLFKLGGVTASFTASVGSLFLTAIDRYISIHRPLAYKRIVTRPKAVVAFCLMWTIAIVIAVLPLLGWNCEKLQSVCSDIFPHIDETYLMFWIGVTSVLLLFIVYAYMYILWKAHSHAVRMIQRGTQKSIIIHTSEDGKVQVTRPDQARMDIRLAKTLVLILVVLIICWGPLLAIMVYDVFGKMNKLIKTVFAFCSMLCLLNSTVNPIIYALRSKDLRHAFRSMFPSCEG

Consider `O=C(NN1CCCCC1)c1ccc2c(c1)N=C(c1ccccc1F)c1ccccc1S2`, for which, where the note is “Appendix A”, the Emax was found to be 104%. This molecule also showed an IC50 (pIC50, Appendix A) of 100 nM.
In the case of `CCCCC1=Nc2cc(C(=O)N3CCN(c4ccc(C)cc4C)CC3)ccc2Sc2ccccc21`, the IC50 under setting [1] is 316 nM. Further, for the setting “Appendix A”, the Emax was found to be 104%.
The like results for `CCCCC1=Nc2cc(C(=O)NC)ccc2Sc2ccccc21` were, in that order, 50.1 nM and 55%.
The like results for `O=C(NN1CCCCC1)c1ccc2c(c1)N=C(c1ccccc1)c1ccccc1O2` were, in that order, 158 nM and 57%.
The like results for `CC(C)NC(=O)c1ccc2c(c1)N=C(c1ccc(Cl)cc1F)c1ccccc1S2` [drawing 664] were, in that order, 63.1 nM and 101%.
On to `CC(C)CC1=Nc2cc(C(=O)NN3CCCCC3)ccc2Sc2ccccc21`, for which, under setting [1], the IC50 was 200 nM. For the setting “Appendix A”, the Emax came out at 90%.
With `CCCC1=Nc2cc(C(=O)NCCc3ccc(OC)c(OC)c3)ccc2Sc2ccccc21`, under setting [1], the IC50 is 31.6 nM. Besides, the Emax (Appendix A) was determined as 105%.
The like results for `O=C(NN1CCCCCC1)c1ccc2c(c1)N=C(c1ccc(Cl)s1)c1ccccc1S2` [drawing 797] were, in that order, 10 nM and 105%.
For the molecule `CCN(CCNC(=O)c1ccc2c(c1)N=C(c1ccccc1)c1ccccc1S2)c1ccccc1` [drawing 777], the IC50 under setting [1] was 10 nM. Further, the Emax (Appendix A) worked out at 106%.
As to `CC(C)NC(=O)c1ccc2c(c1)N=C(c1ccc(F)cc1)c1ccccc1S2` [drawing 1079], the IC50 under setting [1] was 31.6 nM. In addition, the Emax (Appendix A) turned out to be 97%.
`CC(CNC(=O)c1ccc2c(c1)N=C(c1ccc(Cl)cc1)c1cc(F)ccc1S2)c1ccccc1` (stereo not drawn) [drawing 1173]: the IC50 under setting [1] was 39.8 nM. Further, the Emax (Appendix A) amounted to 110%.
The like results for `CCN(CCNC(=O)c1ccc2c(c1)N=C(c1ccccc1F)c1ccccc1S2)c1ccccc1` [drawing 1117] were, in that order, 39.8 nM and 100%.
For `CCCC1=Nc2cc(C(=O)NCCCN3CCC(Cc4ccccc4)CC3)ccc2Sc2ccccc21`, the Emax (Appendix A) amounted to 115%.
With `COc1cccc(C2=Nc3cc(C(=O)NCc4ccc(C)o4)ccc3Sc3ccccc32)n1` [drawing 554], the IC50 under setting [1] is 50.1 nM. The Emax (Appendix A) is 84%.
In the case of `CCCCNC(=O)c1ccc2c(c1)N=C(c1ccc(Cl)s1)c1cc(F)ccc1S2` [drawing 873], the IC50 under setting [1] was 15.8 nM. Also, for the setting “Appendix A”, the Emax is 99%.
With `O=C(NC1CCCCNC1=O)c1ccc2c(c1)N=C(c1ccc(Cl)cc1)c1ccccc1S2` (stereo not drawn), the IC50 under setting [1] was 100 nM. Besides, the Emax (Appendix A) was 81%.
Regarding `O=C(NCCCc1ccccc1)c1ccc2c(c1)N=C(N1CCCCC1)c1ccccc1S2` [drawing 903], the IC50 under setting [1] was 15.8 nM. Moreover, the Emax (Appendix A) amounted to 104%.
Consider `CC(C)CNC(=O)c1ccc2c(c1)N=C(c1ccc(Cl)s1)c1ccc(F)cc1S2` [drawing 703], for which the IC50 under setting [1] was 7.94 nM. In addition, the Emax (Appendix A) is 117%.
The like results for `O=C(NCc1ccccn1)c1ccc2c(c1)N=C(c1ccc(Cl)cc1)c1ccccc1S2` [drawing 1157] were, in that order, 39.8 nM and 125%.
`COc1ccc(C2=Nc3cc(C(=O)NC4CCCC4)ccc3Sc3ccccc32)cc1` [drawing 852]: the IC50 under setting [1] is 158 nM. The Emax (Appendix A) is 103%.
Take `O=C(NN1CCCCCC1)c1ccc2c(c1)N=C(c1ccc(F)cc1)c1ccccc1S2` [drawing 1009]: the IC50 under setting [1] is 25.1 nM. Under “Appendix A”, the Emax was 92%.
As to `C[C@@H]1CCC[C@H](C)N1NC(=O)c1ccc2c(c1)N=C(c1ccc(Cl)c(Cl)c1)c1ccccc1S2` [drawing 739], the Emax (Appendix A) was found to be 114%. Also, the IC50 (pIC50, Appendix A) is 7.94 nM.
Consider `CCCCN(C)C(=O)c1ccc2c(c1)N=C(c1sccc1C)c1ccccc1S2`, for which, under setting [1], the IC50 was 158 nM. Where the note is “Appendix A”, the Emax is 72%.
The like results for `C=C(/C=C\C1=CN=C(CCC)c2ccccc2S1)C(=O)NC1CCCC1` were, in that order, 79.4 nM and 109%.
On the same counts, the results for `CCOCCNC(=O)c1ccc2c(c1)N=C(c1ccc(Cl)cc1)c1ccccc1S2` [drawing 604] are 50.1 nM and 92%.
On to `CCCC1=Nc2cc(C(=O)NCCCN3CCCCC3CC)ccc2Sc2ccccc21` (stereo not drawn), for which the Emax (Appendix A) was 128%.
As to `O=C(NCc1ccccc1Cl)c1ccc2c(c1)N=C(c1ccc(F)cc1)c1ccccc1S2` [drawing 1121], under setting [1], the IC50 was 39.8 nM. The Emax (Appendix A) was found to be 89%.
Take `N#Cc1ccc(C2=Nc3cc(C(=O)NNCc4ccccc4)ccc3Sc3ccccc32)cc1` [drawing 1174]: the Emax (Appendix A) is 58%.
For `CC(C)CCNC(=O)c1ccc2c(c1)N=C(c1ccccc1F)c1ccccc1S2` [drawing 1067], the IC50 under setting [1] was 31.6 nM. Further, the Emax (Appendix A) stood at 117%.
On the same counts, the results for `CCCC1=Nc2cc(C(=O)N3CCC(C(=O)OCC)CC3)ccc2Sc2ccccc21` are 200 nM and 108%.
Regarding `O=C(NCCc1cccnc1)c1ccc2c(c1)N=C(c1ccc(Cl)s1)c1ccccc1S2` [drawing 1029], under setting [1], the IC50 is 25.1 nM. Further, the Emax (Appendix A) is 110%.
On the same counts, the results for `O=C(NCc1ccc(Cl)cc1Cl)c1ccc2c(c1)N=C(C1CCCCC1)c1ccccc1S2` are 31.6 nM and 90%.
Consider `O=C(NN1CCCCCC1)c1ccc2c(c1)N=C(c1cccc(F)c1)c1ccccc1S2` [drawing 697], for which, for the setting “Appendix A”, the Emax amounted to 106%. The IC50 (pIC50, Appendix A) was 7.94 nM.
Turning to `O=C(NCc1ccccc1Cl)c1ccc2c(c1)N=C(N1CCCCC1)c1ccccc1S2` [drawing 1013], under setting [1], the IC50 was 25.1 nM. For the same molecule, for the setting “Appendix A”, the Emax was 117%.
The like results for `CCCCN(C)CCCNC(=O)c1ccc2c(c1)N=C(CCC)c1ccccc1S2` were, in that order, 794 nM and 124%.
Turning to `O=C(Cc1ccccc1)NNC(=O)c1ccc2c(c1)N=C(N1CCCCC1)c1ccccc1S2`, under setting [1], the IC50 was 200 nM. Also, the Emax (Appendix A) was 69%.
On the same counts, the results for `O=C(NCCc1ccncc1)c1ccc2c(c1)N=C(c1ccc(Cl)c(Cl)c1)c1ccccc1S2` [drawing 1095] are 31.6 nM and 119%.
Turning to `O=C(NCc1ccc(F)cc1)c1ccc2c(c1)N=C(c1ccccc1F)c1ccccc1S2` [drawing 925], the IC50 under setting [1] was 15.8 nM. Also, the Emax (Appendix A) turned out to be 102%.
As for `O=C(NCCC(F)(F)F)c1ccc2c(c1)N=C(c1ccc(Cl)cc1F)c1ccccc1S2` [drawing 667], under setting [1], the IC50 was 6.31 nM. Moreover, the Emax (Appendix A) was 100%.
On the same counts, the results for `CCCC1=Nc2cc(C(=O)NC(C)CC)ccc2Sc2ccccc21` (stereo not drawn) are 100 nM and 105%.
The like results for `O=C(NC1CCCC1)c1ccc2c(c1)N=C(c1ccccc1F)c1ccccc1S2` were, in that order, 398 nM and 79%.
`O=C(NCc1ccco1)c1ccc2c(c1)N=C(c1ccccc1F)c1ccccc1S2` [drawing 859]: for the setting “Appendix A”, the Emax was found to be 100%. In addition, the IC50 (pIC50, Appendix A) is 12.6 nM.
`O=C(NC1CCCC1)c1ccc2c(c1)N=C(c1ccc(Cl)cc1)c1ccccc1S2` [drawing 782]: the IC50 under setting [1] was 100 nM. For the same molecule, the Emax (Appendix A) was 105%.
In the case of `Cc1ccsc1C1=Nc2cc(C(=O)NN3[C@H](C)CCC[C@@H]3C)ccc2Sc2ccccc21` [drawing 772], under “Appendix A”, the Emax amounted to 89%. This molecule also gave an IC50 (pIC50, Appendix A) of 100 nM.
`Cc1ccsc1C1=Nc2cc(C(=O)NC3CCCCC3)ccc2Sc2ccccc21` [drawing 572]: under setting [1], the IC50 is 50.1 nM. The Emax (Appendix A) amounted to 88%.

For the origin of these results see US20080090805A1, “CB-1 MODULATING COMPOUNDS AND THEIR USE” (ACADIA PHARMACEUTICALS INC., priority 2005, published 2008).
